Test results reported in PMC11434026, “Development and Validation of an LC-MS/MS Assay for the Quantitation of MO-OH-Nap Tropolone in Mouse Plasma: Application to In Vitro and In Vivo Pharmacokinetic Studies” (Molecules, 2024).
“And” between values parts separate entries of the source, which are not always exact repeats. Identical values can stand only once. Like-named read-outs stand apart in the source and are kept apart here.

Experiments:
[1] = In vitro metabolic stability in mouse liver microsomes; type: in vitro ADME; details: MLM
Experimental: (§1) Metabolic stability was assessed using mouse, rat, and human liver microsomes (XenoTech, LLC, Lenexa, KS, USA) for phase I metabolism. Briefly, A reaction solution was prepared by mixing […] of PBS (100 mM, pH 7.4), 25 µL of microsomal protein (20 mg/mL), MgCl2 (5 µL; 10 mM), and 50 µL of NADPH (2 mM). The final volume (0.5 mL) was pre-incubated for 10 min in a 37 °C water bath at 60 rpm. An aliquot of MO-OH-Nap (2 µL from 1 µg/mL stock) was spiked into the above solution to initiate the reaction. Aliquots of (50 µL) were collected at time intervals (0, 5, 15, 20, 30, 45, and 60 min) and quenched with 300 µL of ACN, […]. Afterwards, 10 µL of IS stock (1.0 µg/mL) was spiked in each sample then vortexed (5 min) and centrifuged at 10,800 rpm (13,000× g) for 15 min. Samples were vortexed and centrifuged at 10,800 rpm (13,000× g) for 15 min, the supernatant was collected and transferred to an HPLC vial and 10 µL were injected into the LC-MS/MS system. Testosterone and diclofenac were used as positive and negative controls to ensure that liver microsomes and incubation conditions were appropriate for conducting metabolism studies.

[2] = In vitro metabolic stability in human liver microsomes; type: in vitro ADME; details: HLM
Experimental: as §1

[3] = Tissue distribution after single IP dose in CD-1 mice; type: in vivo, mouse; details: for concentration at 2 h: female, CD-1, mouse, 2 h after single IP 5 mg/kg
Experimental: MO-OH-Nap was dissolved in a 5% DMSO, 45% w/v hydroxypropyl-β-cyclodextrin solution in PBS (final concentration 0.625 mg/mL MO-OH-Nap). MO-OH-Nap (5 mg/kg) was administered IP. After dosing, approximately 100 µL of blood was collected in Lithium-Heparin-Microvette 300 µL Capillary Blood Collection Tube (SARSTEDT AG& Co., Nümbrecht, Germany) from the maxillary vein at 5, 15, 30 min and 1, 2, 4, 6, 8, 24, and 48 h. Two blood time points were collected from every mouse and the third time point was the terminal time point, for a total of three time points from each mouse (5 mice/group/per time point). Blood was centrifuged at 4000× g at 4 °C for 10 min to extract plasma. The collected plasma samples were stored at −80 °C until analysis. The specified tissues including liver, lungs, kidney, spleen, heart, and brain were collected at terminal times of 2, 8, 24 and 48 h after dosing. Tissue samples were rinsed with PBS to remove excess blood and blotted with filter paper. After weighing, each tissue sample was individually homogenized with de-ionized water using a TissueLyser II (Qiagen Science, Louisville, KY, USA). A dilution factor of five was used for liver, spleen, brain, lungs, and kidney while the heart was homogenized at a 6-fold dilution factor. All tissues were stored at −80 °C until analysis. Plasma concentrations (ng/mL) and tissue concentrations (ng/g) were determined for each time point collected using LC-MS/MS analysis.

[4] = Gastrointestinal fluid stability (SGF, SIF, PBS); type: physicochemical; details: 37 °C, 1 µg/mL
Experimental: The gastric stability of MO-OH-Nap was determined at different physiological pH conditions using simulated gastric/intestinal fluid (SGF/SIF) or PBS (pH7.4) prepared with USP specifications. Briefly, simulated gastric fluid (SGF), pH 1.2, was prepared by dissolving […] of sodium chloride (NaCl) and 3.2 g of pepsin in 7 mL hydrochloric acid (HCl) and a sufficient amount of water to make 1000 mL. The simulated intestinal fluid (SIF), pH 6.8, was prepared by dissolving 6.805 g of monobasic potassium phosphate in 250 mL of water. Then 77 mL of 0.2 N sodium hydroxide (NaOH) was mixed with 500 mL water and 10 g of pancreatin, then made up to 1000 mL. The SIF solution is adjusted to pH 6.8 ± 0.1 with either 0.2 N NaOH or 0.2 N HCl. MO-OH-Nap at 1 µg/mL concentration was incubated with SGF, SIF and PBS (100 mM pH 7.4) at 37 °C on a shaking water bath, n = 3. Samples (100 µL) were collected at 0, 15, 30, 60, and 120 min. Immediately after sample collection, 300 µL ACN was added as a quenching solvent to stop chemical degradation. IS solution (10 µL from 1 µg/mL stock) was added to each sample, vortexed the centrifuged at 14,000 rpm (22,000× g) and 4 °C, and then transferred to HPLC vial for LC-MS/MS analysis. Stability was determined through the percentage of the parent drug remaining at different time points relative to the parent drug at 0 min (100% parent).

[5] = Thermodynamic aqueous solubility in PBS; type: physicochemical
Experimental: After completion of incubation, the microcentrifuge tube was centrifuged at 10,000× g for 10 min. The supernatant (100 μL) was mixed with an equal volume of ACN and centrifuged again at 10,000× g for 10 min. The supernatant was further diluted 80× times with mobile phase and transferred to autosampler vials and analyzed by LC-MS/MS.

Work on `O=c1c(O)ccccc1-c1ccc2ccccc2c1` [MO-OH-Nap, MO-OH-Nap tropolone] yielded a metabolic depletion ([1]; NADPH, 60 min) of under 15%, a parent drug remaining ([1]; all time points to 60 min) of over 95% and a metabolic depletion ([2]; NADPH, 60 min) of under 15%. For the same compound, the parent drug remaining ([2]; all time points to 60 min) was over 95%, the “detection in all harvested tissue” value ([3]; 48 h after single IP 5 mg/kg) was “detected” and the concentration at 2 h ([3]; brain, read-out: tissue concentration, brain) was 51 ng/g. For the same compound, the concentration at 2 h ([3]; heart, read-out: tissue concentration, heart) was 115 ng/g, the concentration at 2 h ([3]; kidney, read-out: tissue concentration, kidney) was 750 ng/g and the concentration at 2 h ([3]; liver, read-out: tissue concentration, liver) was 1390 ng/g. The concentration at 2 h ([3]; lungs, read-out: tissue concentration, lungs) was 181 ng/g, the concentration at 2 h ([3]; spleen, read-out: tissue concentration, spleen) was 745 ng/g and the drug remaining ([4]; PBS pH 7.4, 120 min) was over 80%. For the same compound, the drug remaining ([4]; SGF pH 1.2, 120 min) was over 80%, the drug remaining ([4]; SIF pH 6.8, 120 min) was over 80% and the “solubility class per USP” value ([5]; PBS pH 7.4) was “partially soluble and very slightly soluble”. The solubility at 24 h ([5]; phosphate buffered saline (PBS), PBS pH 7.4, 24 h) was 20.2 µg/mL and 80.1 µM.
